Experimental data published in publication PMC6906431, “Selective small molecule PARG inhibitor causes replication fork stalling and cancer cell death” (Nature Communications, 2019).

Columns and labels:
[1] = system: MDA-MB-231 control cells (scramble shRNA); experiment: Sulforhodamine B (SRB) cytotoxicity assay; type: cell-based, human; conditions: 72 h
Outline: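 Stable scramble-shRNA control and shPARG knockdown MDA-MB-231 cells, and MRC-5 cells, exposed to increasing compound concentrations for growth-inhibitory IC50 determination. Data normalized to 100% survival at the lowest inhibitor concentration; equivalent DMSO as negative control.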

[2] = target: hPARP1 (Homo sapiens, UniProt P09874); experiment: In vitro PARP1 auto-PARylation; conditions: inhibitor 25 – 100 µM; 25 µM NAD+
Sequence of hPARP1 (P09874 whole entry): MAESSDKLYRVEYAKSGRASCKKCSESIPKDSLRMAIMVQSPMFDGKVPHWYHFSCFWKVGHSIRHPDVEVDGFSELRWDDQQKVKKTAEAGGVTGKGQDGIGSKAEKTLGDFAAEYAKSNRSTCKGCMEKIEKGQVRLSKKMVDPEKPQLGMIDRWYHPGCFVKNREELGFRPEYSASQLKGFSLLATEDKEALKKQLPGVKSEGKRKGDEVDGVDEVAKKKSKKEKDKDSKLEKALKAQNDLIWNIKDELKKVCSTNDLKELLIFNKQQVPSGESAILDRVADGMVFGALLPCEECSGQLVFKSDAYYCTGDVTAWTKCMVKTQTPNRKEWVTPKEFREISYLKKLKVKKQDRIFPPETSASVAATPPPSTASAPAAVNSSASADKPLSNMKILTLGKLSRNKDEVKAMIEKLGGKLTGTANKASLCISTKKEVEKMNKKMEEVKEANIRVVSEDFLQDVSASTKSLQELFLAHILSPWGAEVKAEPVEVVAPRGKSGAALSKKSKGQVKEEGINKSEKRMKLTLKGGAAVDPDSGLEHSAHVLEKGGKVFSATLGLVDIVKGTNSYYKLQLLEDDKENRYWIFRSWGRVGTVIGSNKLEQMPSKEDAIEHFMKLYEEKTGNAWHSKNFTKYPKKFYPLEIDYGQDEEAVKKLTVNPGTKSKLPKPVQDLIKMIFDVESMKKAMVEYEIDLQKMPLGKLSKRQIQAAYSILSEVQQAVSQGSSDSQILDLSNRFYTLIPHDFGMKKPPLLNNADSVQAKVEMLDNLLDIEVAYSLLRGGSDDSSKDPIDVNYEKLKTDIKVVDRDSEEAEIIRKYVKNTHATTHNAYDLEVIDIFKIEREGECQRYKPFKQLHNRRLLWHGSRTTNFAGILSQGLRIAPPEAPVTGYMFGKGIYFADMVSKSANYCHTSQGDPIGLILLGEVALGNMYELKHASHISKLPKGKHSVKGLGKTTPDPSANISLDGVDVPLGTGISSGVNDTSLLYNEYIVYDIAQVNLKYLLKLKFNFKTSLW

[3] = system: MDA-MB-231 PARG knockdown (PARG-KD) cells; experiment: Cellular PARylation, anti-PAR immunoblot; type: cell-based, human
Experimental: Fig. 6 Selective inhibition of PARG by xanthine derivative JA2131. a Clonogenic survival assays of PC3, MDA-MB-231, and MCF-7 cells treated with PARGi. Cells were treated with either DMSO or 10 µM JA2131 for 2 h, irradiated with 3 Gy (MDA-MB-231 and MCF-7), 7 Gy (PC3) IR and grown for ~2 weeks, then colonies were fixed with methanol and stained with crystal violet. The results of three independent experiments are shown. Error bars = the standard error of the mean (SEM). b dose-response of JA2131 in MDA-MB-231 cells with and without IR. Cells were treated with designated concentrations of JA2131 for 2 h and then either left untreated or exposed to 3 Gy IR and allowed to recover for 1 h before lysis. Total protein was immunoblotted with anti-PAR antibody (upper panel), stripped and reprobed with anti-PCNA as a loading control. c MDA-MB-231 cells with stable scrambled shRNA (WT) or stable PARG shRNA, knockdown (KD), were treated with 5 μM JA2131 for 2 h, lysed and then total lysates were immunoblotted for anti-PAR (upper panel) followed by anti-PARG (upper middle panel), anti-PARP1 (lower middle panel) and anti-actin (bottom panel) antibody. […] Stable cells with scramble shRNA (control) and shPARG (PARG-KD) cells were treated with an increasing concentration of JA2131 for growth inhibitory IC50 determination. The data was normalized against 100% survival at the lowest inhibitor concentration. Error bars show the percent coefficient of variation. Equivalent concentrations of DMSO were used as a negative control. e The cytotoxicity of JA2131 along with PDD, Veliparib and Doxorubicin against MRC-5 cells. Error bars show the percent coefficient of variation. f CETSA for in-cell JA2131 target engagement. Normalized anti-PARG western blot intensities of three independent experiments were fitted as above and the estimated aggregation temperature (Tagg) is shown in the tabulated insert. Source Data are provided as a Source Data file.
Using shRNA, next, we generated a stable MDA-MB-231 PARG knockdown (PARG-KD) cell-line (Supplementary Fig. 10). We compared PARGi JA2131-induced PARylation in PARG-KD and control cells. We reasoned that PARG-KD cells would show a reduced response to a selective PARGi as the stable PARG-KD cells would have to adopt a PARG-independent survival mechanism. MDA-MB-231 control cells and PARG-KD cells were treated with JA2131, then total cell lysates were subjected to immunoblotting with anti-PAR antibody, followed by immunodetection for anti-PARG, PARP1 and Actin antibody (Fig. 6c). […] Dose-response curves comparing control and PARG-KD cells further validate the selective action of JA2131 on control cells expressing PARG, but not on the PARG-KD cells (Supplementary Fig. 12).
PC3, MDA-MB-231 cells were maintained in RPMI 1640, MCF-7 cells in Eagle’s Minimum Essential Medium (EMEM), MRC-5 cells in Eagle’s Minimum Essential Medium and Hela and U2OS cells in Dulbecco’s modified Eagle’s high glucose medium (DMEM) supplemented with 10% (vol/vol) fetal bovine serum (FBS) and 1% antibiotic/antimycotic (Lonza) in a humidified incubator with 10% CO2. All cell lines were purchased from ATCC and regularly checked for mycoplasma and cell authentication. SUM 149PT cells were cultured in F-12 Hams (Gibco) supplemented with 5% fetal bovine serum, insulin, and hydrocortisone. […] Cells were fixed with methanol (100%), stained with crystal violet and analyzed using a GelCount instrument (Oxford Optronix Ltd). […]

SMILES: Cn1c(=S)c2[nH]c(SCCN3CCOCC3)nc2n(C)c1=O [JA2131]
- IC50 ([1]; Homo sapiens, MDA-MB-231, growth inhibitory): 3.89 ± 0.88 µM
- Viability ([1]; log concentration μM 0.193959): 75.9862%
- Viability ([1]; log concentration μM 0.49485): 65.9005%
- Viability ([1]; log concentration μM 0.79588): 45.256%
- Viability ([1]; log concentration μM 1.09691): 30.1241%
- Viability ([1]; log concentration μM 1.69897): 14.974%
- Viability ([1]; log concentration μM 2): 13.0697%
- Viability ([1]; log concentration μM 2.30103): 16.4202%
- Viability ([1]; log concentration μM -0.10735): 96.2538%
- Viability ([1]; log concentration μM -0.40782): 101.482%
- Viability ([1]; log concentration μM -0.70997): 100%
- Viability ([1]; log concentration μM -1.00877): 100%
- inhibition of PARP1 activation (PAR synthesis) [2]: did not inhibit PARP1 activation up to 100 μM
- anti-PAR western blot band, Normalized ([3]; 5 μM JA2131 2 h, Ci-DMSO = 1): 8.898
- anti-PAR western blot band, Intensity inversion ([3]; 5 μM JA2131 2 h, ImageJ): 0.00723
- anti-PAR western blot band, Neg. substracted ([3]; 5 μM JA2131 2 h, ImageJ): 0.001922
- anti-PAR western blot band, mean int. ([3]; 5 μM JA2131 2 h, ImageJ): 138.32
- PAR accumulation after treatment ([3]; 5 μM, 2 h): did not affect the level of PAR accumulation
